Measured values from ChEMBL document CHEMBL1201862, “PubChem BioAssay data set” (2004).
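Dose response: 5 concentrations. Exposure: 48 h. Format: 96-well plates. Endpoint: linear interpolation; highest concentration if not reached. GI50: concentration for 50% inhibition of growth.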 Calls of active or inactive are those of the source. No stated cut-off is given here; in the data, active = GI50 up to about 1.1 µM and inactive = higher.

How the values were obtained:
Assay in all cases: NCI-60 cell line screen, 48 h
DMS-114 = tested on: DMS-114
TK-10 = tested on: TK-10
786-0 = tested on: 786-0
OVCAR-8 = tested on: OVCAR-8
DMS-273 = tested on: DMS-273
SNB-75 = tested on: SNB-75
U-251 = tested on: U-251
SF-295 = tested on: SF-295
SF-539 = tested on: SF-539
SK-OV-3 = tested on: SK-OV-3
HOP-92 = tested on: HOP-92
COLO 205 = tested on: COLO 205
SK-MEL-2 = tested on: SK-MEL-2
CAKI-1 = tested on: CAKI-1
SK-MEL-5 = tested on: SK-MEL-5
NCI-H23 = tested on: NCI-H23
CCRF-CEM = tested on: CCRF-CEM
HOP-18 = tested on: HOP-18
MOLT-4 = tested on: MOLT-4
OVCAR-5 = tested on: OVCAR-5
HCT-15 = tested on: HCT-15
SNB-19 = tested on: SNB-19
LOX IMVI = tested on: LOX IMVI
IGROV-1 = tested on: IGROV-1
HOP-62 = tested on: HOP-62
HCC 2998 = tested on: HCC 2998
KM-20L2 = tested on: KM-20L2
NCI-H522 = tested on: NCI-H522
SW-620 = tested on: SW-620
UO-31 = tested on: UO-31
LXFL 529 = tested on: LXFL 529
Malme-3M = tested on: Malme-3M
UACC-62 = tested on: UACC-62
UACC-257 = tested on: UACC-257
EKVX = tested on: EKVX
NCI-H226 = tested on: NCI-H226
K562 = tested on: K562
SR = tested on: SR
M14 = tested on: M14
NCI-H460 = tested on: NCI-H460
RXF 393 = tested on: RXF 393
SK-MEL-28 = tested on: SK-MEL-28
SNB-78 = tested on: SNB-78
RPMI-8226 = tested on: RPMI-8226
ACHN = tested on: ACHN
A498 = tested on: A498
KM12 = tested on: KM12
SF-268 = tested on: SF-268
HL-60 = tested on: HL-60
M19-MEL = tested on: M19-MEL
HCT-116 = tested on: HCT-116
DLD-1 = tested on: DLD-1
SN12C = tested on: SN12C
A549 = tested on: A549
HT-29 = tested on: HT-29
OVCAR-3 = tested on: OVCAR-3
OVCAR-4 = tested on: OVCAR-4

Q: With `CC(=O)NC(CCCN(Cc1ccccc1)C(=O)NCCCl)C(=O)NCc1ccccc1` (stereo not drawn) as the molecule, how does the GI50 (DMS-114) read?
A: > 100 µM (inactive)

Q: What about the GI50 (TK-10) of the same molecule?
A: > 100 µM (inactive)

Q: What about the GI50 (786-0) of the same molecule?
A: > 100 µM (inactive)

Q: And the GI50 (OVCAR-8)?
A: > 100 µM (inactive)

Q: What about the GI50 (DMS-273) of the same molecule?
A: > 100 µM (inactive)

Q: What about the GI50 (SNB-75) of the same molecule?
A: > 69.5 µM (inactive)

Q: And the GI50 (U-251)?
A: > 100 µM (inactive)

Q: What about the GI50 (SF-295) of the same molecule?
A: > 100 µM (inactive)

Q: And the GI50 (SF-539)?
A: > 100 µM (inactive)

Q: And the GI50 (SK-OV-3)?
A: > 100 µM (inactive)

Q: And the GI50 (HOP-92)?
A: > 79.4 µM (inactive)

Q: What about the GI50 (COLO 205) of the same molecule?
A: > 100 µM (inactive)

Q: What about the GI50 (SK-MEL-2) of the same molecule?
A: > 100 µM (inactive)

Q: And the GI50 (CAKI-1)?
A: > 100 µM (inactive)

Q: What about the GI50 (SK-MEL-5) of the same molecule?
A: > 100 µM (inactive)

Q: And the GI50 (NCI-H23)?
A: > 100 µM (inactive)

Q: What about the GI50 (CCRF-CEM) of the same molecule?
A: > 100 µM (inactive)

Q: And the GI50 (HOP-18)?
A: > 100 µM (inactive)

Q: What about the GI50 (MOLT-4) of the same molecule?
A: > 100 µM (inactive)

Q: What about the GI50 (OVCAR-5) of the same molecule?
A: > 100 µM (inactive)

Q: And the GI50 (HCT-15)?
A: > 100 µM

Q: What about the GI50 (SNB-19) of the same molecule?
A: > 100 µM (inactive)

Q: And the GI50 (LOX IMVI)?
A: > 100 µM (inactive)

Q: What about the GI50 (IGROV-1) of the same molecule?
A: > 100 µM (inactive)

Q: What about the GI50 (HOP-62) of the same molecule?
A: > 100 µM (inactive)

Q: And the GI50 (HCC 2998)?
A: > 100 µM (inactive)

Q: And the GI50 (KM-20L2)?
A: > 100 µM (inactive)

Q: And the GI50 (NCI-H522)?
A: > 100 µM (inactive)

Q: What about the GI50 (SW-620) of the same molecule?
A: > 100 µM (inactive)

Q: And the GI50 (UO-31)?
A: > 100 µM (inactive)

Q: What about the GI50 (LXFL 529) of the same molecule?
A: > 100 µM (inactive)

Q: And the GI50 (Malme-3M)?
A: > 100 µM (inactive)

Q: What about the GI50 (UACC-62) of the same molecule?
A: > 100 µM (inactive)

Q: What about the GI50 (UACC-257) of the same molecule?
A: > 100 µM (inactive)

Q: What about the GI50 (EKVX) of the same molecule?
A: > 100 µM (inactive)

Q: What about the GI50 (NCI-H226) of the same molecule?
A: > 100 µM (inactive)

Q: And the GI50 (K562)?
A: > 100 µM (inactive)

Q: And the GI50 (SR)?
A: > 100 µM (inactive)

Q: What about the GI50 (M14) of the same molecule?
A: > 100 µM (inactive)

Q: And the GI50 (NCI-H460)?
A: > 100 µM (inactive)

Q: What about the GI50 (RXF 393) of the same molecule?
A: > 100 µM (inactive)

Q: And the GI50 (SK-MEL-28)?
A: > 100 µM (inactive)

Q: And the GI50 (SNB-78)?
A: > 100 µM (inactive)

Q: What about the GI50 (RPMI-8226) of the same molecule?
A: > 100 µM (inactive)

Q: What about the GI50 (ACHN) of the same molecule?
A: > 100 µM (inactive)

Q: And the GI50 (A498)?
A: > 100 µM (inactive)

Q: And the GI50 (KM12)?
A: > 100 µM (inactive)

Q: What about the GI50 (SF-268) of the same molecule?
A: > 100 µM (inactive)

Q: And the GI50 (HL-60)?
A: > 100 µM (inactive)

Q: And the GI50 (M19-MEL)?
A: > 100 µM (inactive)

Q: And the GI50 (HCT-116)?
A: > 100 µM (inactive)

Q: What about the GI50 (DLD-1) of the same molecule?
A: > 100 µM (inactive)

Q: And the GI50 (SN12C)?
A: > 100 µM (inactive)

Q: What about the GI50 (A549) of the same molecule?
A: > 100 µM (inactive)

Q: What about the GI50 (HT-29) of the same molecule?
A: > 100 µM (inactive)

Q: What about the GI50 (OVCAR-3) of the same molecule?
A: > 100 µM (inactive)

Q: What about the GI50 (OVCAR-4) of the same molecule?
A: > 100 µM (inactive)

Q: `O=C1C=CC2(C=C1)C[C@H](NC(=O)C(F)(F)F)C(=O)O2` was tested. Which GI50 (DMS-114) did it give?
A: 64.6 µM (inactive)

Q: What about the GI50 (TK-10) of the same molecule?
A: > 100 µM (inactive)

Q: What about the GI50 (786-0) of the same molecule?
A: > 100 µM (inactive)

Q: And the GI50 (OVCAR-8)?
A: 37.2 µM (inactive)

Q: And the GI50 (SNB-75)?
A: 69 µM (inactive)

Q: And the GI50 (U-251)?
A: 54.3 µM (inactive)

Q: What about the GI50 (SF-295) of the same molecule?
A: > 100 µM (inactive)

Q: And the GI50 (SF-539)?
A: 34.7 µM (inactive)

Q: And the GI50 (SK-OV-3)?
A: > 100 µM (inactive)

Q: And the GI50 (COLO 205)?
A: 29.6 µM (inactive)

Q: What about the GI50 (CAKI-1) of the same molecule?
A: 30.5 µM (inactive)

Q: And the GI50 (SK-MEL-5)?
A: 76.2 µM (inactive)

Q: What about the GI50 (NCI-H23) of the same molecule?
A: 26.7 µM (inactive)

Q: What about the GI50 (CCRF-CEM) of the same molecule?
A: 16.4 µM (inactive)

Q: What about the GI50 (MOLT-4) of the same molecule?
A: 20.4 µM (inactive)

Q: What about the GI50 (OVCAR-5) of the same molecule?
A: > 100 µM (inactive)

Q: What about the GI50 (HCT-15) of the same molecule?
A: 31.6 µM

Q: And the GI50 (SNB-19)?
A: > 100 µM (inactive)

Q: What about the GI50 (LOX IMVI) of the same molecule?
A: 22.3 µM (inactive)

Q: And the GI50 (HOP-62)?
A: > 100 µM (inactive)

Q: And the GI50 (HCC 2998)?
A: 46.9 µM (inactive)

Q: And the GI50 (KM-20L2)?
A: > 100 µM (inactive)

Q: What about the GI50 (NCI-H522) of the same molecule?
A: 17.3 µM (inactive)

Q: And the GI50 (UO-31)?
A: > 100 µM (inactive)

Q: And the GI50 (LXFL 529)?
A: 23.7 µM (inactive)

Q: And the GI50 (Malme-3M)?
A: 19.8 µM (inactive)

Q: And the GI50 (UACC-62)?
A: 18.1 µM (inactive)

Q: And the GI50 (UACC-257)?
A: 34.8 µM (inactive)

Q: And the GI50 (EKVX)?
A: 18.2 µM (inactive)

Q: And the GI50 (NCI-H226)?
A: > 100 µM (inactive)

Q: What about the GI50 (K562) of the same molecule?
A: 20.4 µM (inactive)

Q: What about the GI50 (SR) of the same molecule?
A: 37 µM (inactive)

Q: And the GI50 (M14)?
A: 73.8 µM (inactive)

Q: And the GI50 (NCI-H460)?
A: > 100 µM (inactive)

Q: What about the GI50 (RXF 393) of the same molecule?
A: 27.5 µM (inactive)

Q: What about the GI50 (SK-MEL-28) of the same molecule?
A: 18.5 µM (inactive)

Q: And the GI50 (SNB-78)?
A: > 100 µM (inactive)

Q: What about the GI50 (RPMI-8226) of the same molecule?
A: 31.3 µM (inactive)

Q: What about the GI50 (ACHN) of the same molecule?
A: > 100 µM (inactive)

Q: What about the GI50 (A498) of the same molecule?
A: > 100 µM (inactive)

Q: And the GI50 (KM12)?
A: 73.5 µM (inactive)

Q: And the GI50 (SF-268)?
A: 37.9 µM (inactive)

Q: And the GI50 (HL-60)?
A: 14.2 µM (inactive)

Q: What about the GI50 (M19-MEL) of the same molecule?
A: 23.6 µM (inactive)

Q: What about the GI50 (HCT-116) of the same molecule?
A: 58.9 µM (inactive)

Q: And the GI50 (DLD-1)?
A: 22.9 µM (inactive)

Q: What about the GI50 (SN12C) of the same molecule?
A: 50 µM (inactive)

Q: What about the GI50 (A549) of the same molecule?
A: > 100 µM (inactive)

Q: What about the GI50 (HT-29) of the same molecule?
A: 79.6 µM (inactive)

Q: What about the GI50 (OVCAR-3) of the same molecule?
A: > 100 µM (inactive)

Q: And the GI50 (OVCAR-4)?
A: > 100 µM (inactive)
